According to US10456414B2, “Methods for treating HCV” (priority 2011, dated 2019):
“And” between values parts separate entries of the source, which are not always exact repeats. Identical values can stand only once. Like-named read-outs stand apart in the source and are kept apart here.

Assays:
[1] = system: HCV genotype 1a replicon; assay: HCV genotype 1a replicon assay, EC50 (Biological Example 3); type: cell-based; conditions: Hepatitis C virus, 72 h, 3 days, average ± standard deviation, read-out: EC50
[2] = HCV genotype 1a replicon assay, CC50 by calcein AM (Biological Example 3); type: cell-based; conditions: human, Huh-7 cells carrying a HCV genotype 1a replicon, genotype 1a replicon cells
Method: (§1) The CC50 assay was performed first.

[3] = system: 1b Huh-luc replicon cells; assay: Antiviral combination studies with Compound 5, MacSynergy II; type: cell-based, HCV; conditions: for Antagonism Volume / Synergy Volume: in combination with Compound 5, mean ± standard deviation
Method: Combination data were analyzed based on the Bliss Independence model using MacSynergy II software. Results of the combination assays were expressed as mean synergy and antagonism volumes (nM^2) calculated at 95% confidence from two independent experiments performed in triplicate.

[4] = system: Huh-7 cells carrying an HCV genotype 1a replicon; conditions: with 320 nM Compound 10 and the highest concentration of the listed compound
[5] = system: genotype 1b replicon RNA; assay: Replicon RNA suppression, 6 day assay, QRT-PCR; conditions: for Compound concentration able to induce replicon RNA 1-1.5 log drop in a 6 day assay: genotype 1b replicon cells
[6] = system: Genotype 1 b replicon cells; assay: Compound combination replicon cure assay, colony formation; conditions: 6 days treatment at the same concentrations, then G418 for 14 days
[7] = system: HCV genotype 1a replicon; assay: HCV genotype 1a replicon assay, EC50 (Biological Example 8); conditions: Hepatitis C virus, 72 h
[8] = system: HCV genotype 1a replicon; assay: Antiviral combination studies with Compound 4, MacSynergy II; conditions: for Antagonism Volume / Synergy Volume: in combination with Compound 4, mean ± standard deviation
[9] = system: HCV 1b replicon system (Huh-luc); assay: Antiviral combination studies with Compound 6, MacSynergy II
[10] = system: HCV genotype 1a replicon; assay: Antiviral combination studies with Compound 10, MacSynergy II; conditions: in combination with Compound 10
[11] = system: Huh-7 cells carrying a HCV genotype 1a replicon; assay: Cytotoxicity combination studies with Compound 4, MacSynergy II; conditions: for Interaction (cytotoxicity): in combination with Compound 4; for Antagonism Volume (cytotoxicity) / Synergy Volume (cytotoxicity): in combination with Compound 4, mean ± standard deviation
[12] = HCV genotype 1a replicon assay, CC50 by calcein AM (Biological Example 8); conditions: human, Huh-7 cells carrying an HCV genotype 1a replicon
[13] = system: Huh-7 cells carrying a HCV genotype 1a replicon; assay: HCV genotype 1a replicon assay, CC50 by calcein AM (Biological Example 3); type: cell-based; conditions: genotype 1a replicon cells, 3 days, read-out: CC50
Method: as §1

[14] = system: GT1b wild-type replicon; assay: microbe, parasite or virus in culture; type: cell-based, HCV; conditions: Hepatitis C virus, 72 h, 3 days
[15] = system: GT1b NS5B S282T mutant replicon; assay: microbe, parasite or virus in culture; type: cell-based, HCV; conditions: for Fold change: GT1b, S282T EC50 versus corresponding wild type; for EC50: Hepatitis C virus, GT1B, 72 h, read-out: EC50 S282T
[16] = system: GT2a wild-type replicon; assay: microbe, parasite or virus in culture; type: cell-based, HCV; conditions: Hepatitis C virus, 72 h, 3 days
[17] = system: GT2a NS5B S282T mutant replicon; assay: microbe, parasite or virus in culture; type: cell-based, HCV; conditions: for Fold change: GT2a, S282T EC50 versus corresponding wild type; for EC50: Hepatitis C virus, GT2A, 72 h, read-out: EC50 S282T
[18] = system: GT2b wild-type chimeric replicon (2b NS5B in GT1b backbone); assay: microbe, parasite or virus in culture; type: cell-based, HCV; conditions: Hepatitis C virus, 72 h, read-out: EC50 WT
[19] = system: GT2b NS5B S282T mutant chimeric replicon; assay: microbe, parasite or virus in culture; type: cell-based, HCV; conditions: for Fold change: GT2b, S282T EC50 versus corresponding wild type; for EC50: Hepatitis C virus, GT2B, 72 h, read-out: EC50 S282T
[20] = system: GT3a wild-type chimeric replicon (3a NS5B in GT1b backbone); assay: microbe, parasite or virus in culture; type: cell-based, HCV; conditions: Hepatitis C virus, 72 h, read-out: EC50 WT
[21] = system: GT3a NS5B S282T mutant chimeric replicon; assay: microbe, parasite or virus in culture; type: cell-based, HCV; conditions: for Fold change: GT3a, S282T EC50 versus corresponding wild type; for EC50: Hepatitis C virus, GT3A, 72 h, read-out: EC50 S282T
[22] = system: GT4a wild-type chimeric replicon (4a NS5B in GT1b backbone); assay: microbe, parasite or virus in culture; type: cell-based, HCV; conditions: Hepatitis C virus, 72 h, read-out: EC50 WT
[23] = system: GT4a NS5B S282T mutant chimeric replicon; assay: microbe, parasite or virus in culture; type: cell-based, HCV; conditions: for Fold change: GT4a, S282T EC50 versus corresponding wild type; for EC50: Hepatitis C virus, GT4A, 72 h, read-out: EC50 S282T
[24] = Drug-drug interactions of co-administered compounds (exposure); type: in vivo; conditions: co-administered with Compound 2
Method: With respect to Compounds 9 and 10, or pharmaceutically acceptable salts thereof, the composition may comprise 10 mg to 1000 mg per day (according to US 2010/0298257). With respect to Compound 11, or pharmaceutically acceptable salts thereof, the composition may comprise 1 mg to 1000 mg per day (according to US 2010/0081628).

[25] = system: Genotype 1a replicon, NS5A M28T
[26] = system: Genotype 1a replicon, NS5A Q30H
[27] = system: Genotype 1a replicon, NS5A Q30R
[28] = system: Genotype 1a replicon, NS5A Q30E
[29] = system: Genotype 1a replicon, NS5A L31M
[30] = system: Genotype 1a replicon, NS5A Y93C
[31] = system: Genotype 1a replicon, NS5A Y93H
[32] = system: NS5B S282T mutant replicons; assay: microbe, parasite or virus in culture; type: cell-based, HCV; conditions: Hepatitis C virus, read-out: EC50 values for S282T across all five genotypes
[33] = system: panel of NS5A mutant replicons; assay: Transient replicon assay, panel of NS5A mutant replicons; type: cell-based, HCV; conditions: seven NS5A mutants, genotype 1a
Excerpt: NS5A mutant replicons were created by synthesizing a sequence encoding the first 149 amino acids of NS5A containing the desired mutation flanked by a 5′ and 3′ BsrGI and EcoRI site, respectively (Genscript, Piscataway, N.J.). Synthesized fragments were then cloned by standard molecular biology techniques into a 1a Rluc replicon plasmid modified to enable cloning into unique BsrGI and EcoRI restriction sites. Mutations were confirmed by DNA sequencing.
RNA was transfected into Huh-lunet cells using the method of Lohmann et al. (Lohmann et al., Science 1999; 285 (5424):110-3) Briefly, cells were trypsinized and washed twice with PBS. A suspension of 4×10^6 cells in 400 μL of PBS were mixed with 5 μg of RNA and subjected to electroporation using settings of 960 μF and 270 V. Cells were transferred into 40 mL of pre-warmed culture medium and then seeded into 96-well or 384-well plates. Compounds were 3-fold serially diluted in 100% DMSO and added to cells to achieve a final DMSO concentration of 0.5%. Cells were treated for three days after which culture media were removed, cells were lysed, and Renilla luciferase activity was quantified using commercially available reagents (Promega) and a Victor or Envision instrument (Perkin Elmer, Waltham, Mass.).
Resistance fold changes were calculated as the ratio of mutant to wild-type replicon EC50. […]

[34] = single compound at the listed concentration, 6 days, relative to DMSO control (Table XIV)
[35] = in combination with Compound 6, mean ± standard deviation

CC[C@@H]1C[C@]1(NC(=O)[C@@H]1C[C@@H](Oc2cc(-c3csc(NC(C)C)n3)nc3c(Cl)c(OCCN4CCOCC4)ccc23)CN1C(=O)[C@@H](NC(=O)O[C@@H]1C[C@@H]2C[C@@H]2C1)C(C)(C)C)C(=O)O [Compound 3]
EC50 [1]: 49 ± 18 nM
CC50 at 3 days [2]: > 22200 nM
Interaction ([3]; in combination with Compound 5): Additive
Antagonism Volume [3]: −2 ± 2 nM^2
Synergy Volume [3]: 19 ± 13 nM^2
Cytotoxicity at Highest Concentration of Compound Combinations (% inhibition on cell growth) [4]: 2.0 ± 3.5%
Replicon RNA log drop [5]: −0.9 log
Compound concentration able to induce replicon RNA 1-1.5 log drop in a 6 day assay ([5]; 6 days): 26.25 nM
Replicon RNA log drop [5, 34]: −0.9 log
Uncured colony number [6]: 989
EC50 [7]: 46 nM
Antagonism Volume [8]: −3 ± 2 nM^2%
Synergy Volume [8]: 26 ± 6 nM^2%
Interaction ([9]; in combination with Compound 6): Strong Synergy
Antagonism Volume [9, 35]: −0.1 ± 0.2 nM^2
Synergy Volume [9, 35]: 132 nM^2 and 132 ± 44 nM^2
Interaction [10]: Additive
Interaction (cytotoxicity) [11]: Additivity (Additivity: ≤25 and >−25 nM^2%)
Antagonism Volume (cytotoxicity) [11]: 0 ± 0 nM^2%
Synergy Volume (cytotoxicity) [11]: 3 ± 5 nM^2%
CC50 at 3 days [12]: > 22200 nM

COC(=O)N[C@H](C(=O)N1CC2(CC2)C[C@H]1c1ncc(-c2ccc3c(c2)C(F)(F)c2cc(-c4ccc5nc([C@@H]6[C@H]7CC[C@H](C7)N6C(=O)[C@@H](NC(=O)OC)C(C)C)[nH]c5c4)ccc2-3)[nH]1)C(C)C [Compound 6, (1-{3-[6-(9,9-Difluoro-7-{2-[5-(2-methoxycarbonylamino-3-methyl-butyryl)-5-aza-spiro[2.4]hept-6-yl]-3H-imidazol-4-yl}-9H-fluoren-2-yl)-1H-benzoimidazol-2-yl]-2-aza-bicyclo[2.2.1]heptane-2-carbonyl}-2-methyl-propyl)-carbamic acid methyl ester]
EC50 [1]: 0.033 ± 0.011 nM
CC50 [13]: > 44400 nM
Antagonism Volume [3]: 0 ± 0 nM^2
Synergy Volume [3]: 34 ± 19 nM^2
EC50 [14]: 0.5 nM
Fold change [15]: 0.8
EC50 [15]: 0.4 nM
EC50 [16]: 5160 nM
Fold change [17]: 0.5
EC50 [17]: 2340 nM
EC50 [18]: 0.5 nM
Fold change [19]: 0.9
EC50 [19]: 0.5 nM
EC50 [20]: 0.4 nM
Fold change [21]: 0.6
EC50 [21]: 0.2 nM
EC50 [22]: 0.5 nM
Fold change [23]: 0.8
EC50 [23]: 0.4 nM
increase of exposure of Compound 6 by Compound 2 [24]: approximately 5 ×
Fold Shift in EC50 (DRM EC50/1a-H77 EC50) [25]: 25
Fold Shift in EC50 (DRM EC50/1a-H77 EC50) [26]: 73
Fold Shift in EC50 (DRM EC50/1a-H77 EC50) [27]: 170
Fold Shift in EC50 (DRM EC50/1a-H77 EC50) [28]: 997
Fold Shift in EC50 (DRM EC50/1a-H77 EC50) [29]: 140
Fold Shift in EC50 (DRM EC50/1a-H77 EC50) [30]: 327
Fold Shift in EC50 (DRM EC50/1a-H77 EC50) [31]: 3029
Cytotoxicity at Highest Concentration of Compound Combinations (% inhibition on cell growth) [4]: 5.0 ± 5.0%
Replicon RNA log drop [5]: −1.4 log
Compound concentration able to induce replicon RNA 1-1.5 log drop in a 6 day assay ([5]; 6 days): 0.004 nM
Replicon RNA log drop [5, 34]: −1.4 log
Uncured colony number [6]: 634
EC50 [7]: 0.032 nM
Interaction ([8]; in combination with Compound 4): Additivity (Additivity: ≤25 and >−25 nM^2%)
Antagonism Volume [8]: −7 ± 7 nM^2%
Synergy Volume [8]: 19 ± 17 nM^2%
Interaction (cytotoxicity) [11]: Additivity (Additivity: ≤25 and >−25 nM^2%)
Antagonism Volume (cytotoxicity) [11]: 0 ± 0 nM^2%
Synergy Volume (cytotoxicity) [11]: 8 ± 4 nM^2%
CC50 at 3 days [12]: > 44400 nM

CC(C)OC(=O)[C@H](C)N[P@](=O)(OC[C@H]1O[C@@H](n2ccc(=O)[nH]c2=O)[C@](C)(F)[C@@H]1O)Oc1ccccc1 [Compound 10]
EC50 [14]: 21.5 nM
Fold change [15]: 8.8
EC50 [15]: 189 nM
EC50 [16]: 147 nM
Fold change [17]: 2.4
EC50 [17]: 346 nM
EC50 [18]: 13.3 nM
Fold change [19]: 16.2
EC50 [19]: 216 nM
EC50 [20]: 33.9 nM
Fold change [21]: 3.5
EC50 [21]: 117 nM
EC50 [22]: 35.8 nM
Fold change [23]: 6.1
EC50 [23]: 218 nM
EC50 [32]: 117 to 346 nM
increase (shift) in EC50 for NS5A mutants [33]: no significant shift
Fold Shift in EC50 (DRM EC50/1a-H77 EC50) [25]: 0.9
Fold Shift in EC50 (DRM EC50/1a-H77 EC50) [26]: 1.0
Fold Shift in EC50 (DRM EC50/1a-H77 EC50) [27]: 0.8
Fold Shift in EC50 (DRM EC50/1a-H77 EC50) [28]: 1.0
Fold Shift in EC50 (DRM EC50/1a-H77 EC50) [29]: 1.1
Fold Shift in EC50 (DRM EC50/1a-H77 EC50) [31]: 0.7
EC50 [7]: 39 nM
CC50 at 3 days [12]: > 82400 nM
